From patent US20050239724A1, “Skin penetration enhancing components” (Wyeth, priority 1997, published 2005)

Tests used:
CD4 helper lymphocytes = test: Biopsy immunohistochemistry, CD4 helper lymphocytes; assay type: in vivo, human; conditions: lesion biopsy at end of treatment; control 61/mm^3; P-0.0026 (unpaired T-test)
Experimental: (§1) Assessments were done at weeks 0, 2, 4 and 6 on the low potency treatment and at 8, 10 and 12 on the higher dose formulation, provided there were no signs or laboratory evidence of toxicity. Clinical scoring was done at each attendance and areas traced at the start and finish of treatment. Biopsies from active and control lesions were performed at the end of treatment or at withdrawal. Biopsies were not done if an adverse event such as a reaction to the application occurred as this would influence the measures being assessed.
(§2) In biopsies, epidermal thickness was measured and immunoperoxidase immunohistochemistry done using the following antibodies to count cells in a blinded fashion:
(§3) Thus, antibody Ki-67 was used to give a measure of hyperproliferation in the epidermis and CD4 helper lymphocytes were used to give a measure of auto-immune activity which drives psoriasis.
(§4) Cell counting in tissues was automated, using computer assisted image analysis (Seescan). Data was analysed by Student's T test for paired data and Wilcoxon's test.

[1] = Skin biopsy tissue concentration, four 0.7 mm horizontal sections, acetonitrile extraction (Example 1); assay type: in vivo; conditions: human, 8 % sirolimus in the formulation
Experimental: In parallel, skin biopsies were taken from the individuals after 7 hours, the biopsy samples were glued to a glass slide and serially sectioned horizontally into 4 layers each 0.7 mm thick and extracted with acetonitrile.

chronic plaque psoriasis = test: Double blind left-right comparison of topical sirolimus in chronic plaque psoriasis (Example 3); assay type: in vivo, human
Experimental: A double blind, left-right comparison of the effect of applying topical sirolimus in formulations as described in Examples 1 and 2, to 24 patients with chronic (over three months) plaque psoriasis was conducted. (22 out of the 24 patients were eventually analysed.) A single target plaque was treated for the first 6 weeks with the lower potency formulation of Example 2. After this the active treatment was increased to the higher potency formulation of Example 1 for 6 weeks unless a clear improvement on one side had already occurred.
Subjects were all aged over 18 years, were able to apply creams and had no other significant medical problems. Transaminases were not more than twice the upper limit of normal and subjects were selected to avoid those likely to have a holiday in sunlight during the 6-12 weeks of the trial.
Before the trial started, there was a two week washout period in which only bland emollients were applied to the target lesions.
Treatment was randomised and double blind. Hands were thoroughly washed between the twice daily application of the test formulations. The active formulation was applied consistently to one plaque while a control comprising only the vehicle base was applied consistently to the plaque on the opposite side. Where possible the arms or elbows were selected as target areas as cross contamination is less likely at these sites.
as §1
The lesions were also assessed at fortnightly intervals with subjective scoring on a scale of 0-8 for erythema, thickening, and scaling. […] These included pulsed A scan ultrasound measurement of lesion thickness and erythema measured with a reflectance erythema metre, both were averaged over 5 areas in each psoriatic lesion and were validated using a previous study which was performed using betamethasome as a reference.
At each visit we measured the full blood count, biochemistry, including urea, electrolytes, liver enzymes, bilirubin, calcium, magnesium, uric acid, glucose, amylase, muscle enzymes, lipids and cholesterol. […]
as §4

[2] = Venous blood sirolimus levels after single topical application (MSGCMS); assay type: in vivo, human; conditions: normal skin, 4, 7 and 24 hours
Experimental: A formulation was formed of 8% sirolimus and 92% of a vehicle of capric acid (50%) with benzyl alcohol (50%). This was tested in single application experiments on four individuals with normal skin.
(§5) A formulation of sirolimus (2.2%) in a vehicle comprising isopropyl myristate 40%, benzyl alcohol 10% and capric acid 50% was tested in single application experiments on three individuals with normal skin. […] After 7 hours biopsy samples were taken from two of the individuals. These were bisected in parallel with the surface to give an upper and lower half, roughly corresponding to the epidermis and dermis. The skin was homogenised with acetonitrile and sirolimus concentration was determined by HPLC.

[3] = Skin biopsy tissue concentration, upper and lower half, HPLC (Example 2); assay type: in vivo, human; conditions: 7 hours after application, 2.2% sirolimus in capric acid:isopropyl myristate:benzyl alcohol 50:40:10; for concentration at 7 h: human, skin biopsy, topical, 2.2 % sirolimus in the formulation, Subject A
Experimental: as §5

Ki-67 = test: Biopsy immunohistochemistry, Ki-67 proliferating cells in the epidermis; assay type: in vivo, human; conditions: lesion biopsy at end of treatment; control mean 83/mm^3; P-0.027 (unpaired T test)
Experimental: as §1, §2, §3, §4

## CO[C@H]1C[C@@H]2CC[C@@H](C)[C@@](O)(O2)C(=O)C(=O)N2CCCC[C@H]2C(=O)O[C@H]([C@H](C)C[C@@H]2CC[C@@H](O)[C@H](OC)C2)CC(=O)[C@H](C)/C=C(\C)[C@@H](O)[C@@H](OC)C(=O)[C@H](C)C[C@H](C)/C=C/C=C/C=C/1C [sirolimus]
CD4 helper lymphocytes
  CD4 cells, mean: 32.7 /mm^3
[1]; section 1 (surface, 0-0.7 mm), topical, subject A, section 1 (surface, 0-0.7 mm), 7 hours after application, 8% sirolimus in capric acid:benzyl alcohol 50:50, read-out: Sirolimus concentration, skin section 1
  concentration at 7 h: 59000 ng/g
[1]; section 1 (surface, 0-0.7 mm), topical, subject B, section 1 (surface, 0-0.7 mm), 7 hours after application, 8% sirolimus in capric acid:benzyl alcohol 50:50, read-out: Sirolimus concentration, skin section 1
  concentration at 7 h: 288000 ng/g
[1]; section 1 (surface, 0-0.7 mm), topical, subject C, section 1 (surface, 0-0.7 mm), 7 hours after application, 8% sirolimus in capric acid:benzyl alcohol 50:50, read-out: Sirolimus concentration, skin section 1
  concentration at 7 h: 301000 ng/g
[1]; section 1 (surface, 0-0.7 mm), topical, subject D, section 1 (surface, 0-0.7 mm), 7 hours after application, 8% sirolimus in capric acid:benzyl alcohol 50:50, read-out: Sirolimus concentration, skin section 1
  concentration at 7 h: 216000 ng/g
[1]; section 2 (0.7-1.4 mm), topical, subject B, section 2 (0.7-1.4 mm), 7 hours after application, 8% sirolimus in capric acid:benzyl alcohol 50:50, read-out: Sirolimus concentration, skin section 2
  concentration at 7 h: 108000 ng/g
[1]; section 2 (0.7-1.4 mm), topical, subject C, section 2 (0.7-1.4 mm), 7 hours after application, 8% sirolimus in capric acid:benzyl alcohol 50:50, read-out: Sirolimus concentration, skin section 2
  concentration at 7 h: 144000 ng/g
[1]; section 2 (0.7-1.4 mm), topical, subject D, section 2 (0.7-1.4 mm), 7 hours after application, 8% sirolimus in capric acid:benzyl alcohol 50:50, read-out: Sirolimus concentration, skin section 2
  concentration at 7 h: 126000 ng/g
[1]; section 3, topical, subject A, section 3, 7 hours after application, 8% sirolimus in capric acid:benzyl alcohol 50:50, read-out: Sirolimus concentration, skin section 3
  concentration at 7 h: 255000 ng/g
[1]; section 3, topical, subject B, section 3, 7 hours after application, 8% sirolimus in capric acid:benzyl alcohol 50:50, read-out: Sirolimus concentration, skin section 3
  concentration at 7 h: 173000 ng/g
[1]; section 3, topical, subject C, section 3, 7 hours after application, 8% sirolimus in capric acid:benzyl alcohol 50:50, read-out: Sirolimus concentration, skin section 3
  concentration at 7 h: 339000 ng/g
[1]; section 3, topical, subject D, section 3, 7 hours after application, 8% sirolimus in capric acid:benzyl alcohol 50:50, read-out: Sirolimus concentration, skin section 3
  concentration at 7 h: 256000 ng/g
[1]; section 4, topical, subject A, section 4, 7 hours after application, 8% sirolimus in capric acid:benzyl alcohol 50:50, read-out: Sirolimus concentration, skin section 4
  concentration at 7 h: 239000 ng/g
[1]; section 4, topical, subject B, section 4, 7 hours after application, 8% sirolimus in capric acid:benzyl alcohol 50:50, read-out: Sirolimus concentration, skin section 4
  concentration at 7 h: 214000 ng/g
[1]; section 4, topical, subject C, section 4, 7 hours after application, 8% sirolimus in capric acid:benzyl alcohol 50:50, read-out: Sirolimus concentration, skin section 4
  concentration at 7 h: 370000 ng/g
[1]; section 4, topical, subject D, section 4, 7 hours after application, 8% sirolimus in capric acid:benzyl alcohol 50:50, read-out: Sirolimus concentration, skin section 4
  concentration at 7 h: 241000 ng/g
Chronic plaque psoriasis; 22 analysed patients, one to benzyl alcohol, one to sirolimus and one to both
  contact sensitivity to the topical preparations: Three of the twenty-two patients developed contact sensitivity
Chronic plaque psoriasis; psoriatic lesion, topical twice daily, 2.2% then 8% formulation, vehicle control 2.96, NS
  Ultrasound thickness, mean: 2.99 mm
Chronic plaque psoriasis; reflectance erythema metre, topical twice daily, 2.2% then 8% formulation, vehicle control 33.1, NS
  Erythema measurement, mean: 34.5 arbitrary units
Chronic plaque psoriasis; scale of 0-24, high values indicating a better result, final score, topical twice daily, 2.2% formulation 6 weeks then 8% formulation 6 weeks, vehicle control 9.1, p = 0.032
  Clinical Score, mean: 11.2
[2]; 2.2% sirolimus in isopropyl myristate 40%, benzyl alcohol 10%, capric acid 50%, three individuals, MSGCMS
  sirolimus levels in venous blood: no significant levels of sirolimus were detected
[2]; 8% sirolimus in capric acid:benzyl alcohol 50:50, four individuals, MSGCMS detects down to 0.1 ng/ml
  sirolimus levels in venous blood: no significant levels of sirolimus were detected
[3]; Subject B, Lower (2), roughly dermis
  Sirolimus Concentration, lower skin segment: 0.5 µg/mg
[3]; Subject B, Upper (1), roughly epidermis
  Sirolimus Concentration, upper skin segment: 1.5 µg/mg
[3]; lower half (roughly dermis), Lower (2), roughly dermis, read-out: Sirolimus Concentration, lower skin segment
  concentration at 7 h: 333000 ng/g
[3]; upper half (roughly epidermis), Upper (1), roughly epidermis, read-out: Sirolimus Concentration, upper skin segment
  concentration at 7 h: 0 ng/g
Ki-67
  Ki-67 proliferating cells, mean: 55 /mm^3
